From ChEMBL document CHEMBL1132530, “Picking the S1, S1' and S2' pockets of matrix metalloproteinases. A niche for potent acyclic sulfonamide inhibitors” (Bioorg Med Chem Lett, 1999)

Key:
Stromelysin-1 = Stromelysin-1 (Homo sapiens, UniProt P08254); assay: Inhibition of matrix metalloprotease-3
[1] = target: 72 kDa type IV collagenase (Homo sapiens, UniProt P08253); assay: (§1) Inhibition of matrix metalloprotease-2
[2] = target: Matrix metalloproteinase-9 (Homo sapiens, UniProt P14780); assay: Inhibition of matrix metalloprotease-9
Interstitial collagenase = target: T1, Interstitial collagenase (Homo sapiens, UniProt P03956); assay: Inhibition of matrix metalloprotease-1
T1 sequence (P03956 whole entry): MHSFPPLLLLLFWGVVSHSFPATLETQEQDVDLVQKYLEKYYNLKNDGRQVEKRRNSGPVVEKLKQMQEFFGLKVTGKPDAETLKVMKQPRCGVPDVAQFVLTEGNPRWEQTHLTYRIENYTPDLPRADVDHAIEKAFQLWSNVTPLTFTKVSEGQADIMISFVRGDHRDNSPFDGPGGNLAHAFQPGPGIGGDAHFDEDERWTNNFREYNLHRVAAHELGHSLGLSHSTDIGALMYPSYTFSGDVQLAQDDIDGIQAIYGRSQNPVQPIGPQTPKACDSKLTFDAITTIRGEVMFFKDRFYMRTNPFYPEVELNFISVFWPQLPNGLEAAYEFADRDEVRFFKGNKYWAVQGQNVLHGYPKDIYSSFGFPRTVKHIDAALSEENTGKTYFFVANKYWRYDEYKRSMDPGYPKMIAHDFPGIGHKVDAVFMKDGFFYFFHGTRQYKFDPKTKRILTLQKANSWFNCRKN

Collagenase 3 = Collagenase 3 (Homo sapiens, UniProt P45452); assay: Inhibition of matrix metalloprotease-13
[3] = target: Matrix metalloproteinase-9 (Mus musculus, UniProt P41245); assay: Inhibitory concentration required against matrix metalloprotease-9 (MMP-9 gelatinase B)
[4] = target: 72 kDa type IV collagenase (Mus musculus, UniProt P33434); assay: as §1
Sequence of 72 kDa type IV collagenase (Mus musculus, UniProt P33434) (P33434 whole entry): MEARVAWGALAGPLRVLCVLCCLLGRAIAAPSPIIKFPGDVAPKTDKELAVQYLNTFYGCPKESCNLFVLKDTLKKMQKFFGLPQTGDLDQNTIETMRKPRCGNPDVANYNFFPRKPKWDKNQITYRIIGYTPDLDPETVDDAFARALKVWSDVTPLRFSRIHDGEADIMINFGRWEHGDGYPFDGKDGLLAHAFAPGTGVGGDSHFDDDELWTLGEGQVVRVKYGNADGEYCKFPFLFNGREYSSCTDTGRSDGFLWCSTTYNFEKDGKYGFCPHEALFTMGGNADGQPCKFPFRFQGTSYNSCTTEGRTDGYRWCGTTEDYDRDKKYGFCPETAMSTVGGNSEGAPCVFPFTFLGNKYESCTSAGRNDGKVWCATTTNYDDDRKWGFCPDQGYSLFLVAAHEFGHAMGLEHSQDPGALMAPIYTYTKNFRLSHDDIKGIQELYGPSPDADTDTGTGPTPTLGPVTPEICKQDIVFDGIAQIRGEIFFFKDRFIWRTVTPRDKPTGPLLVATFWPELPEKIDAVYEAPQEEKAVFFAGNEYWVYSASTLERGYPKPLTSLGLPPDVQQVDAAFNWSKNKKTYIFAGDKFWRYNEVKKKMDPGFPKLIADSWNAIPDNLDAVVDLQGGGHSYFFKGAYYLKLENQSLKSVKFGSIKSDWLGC

Sequence of Matrix metalloproteinase-9 (Mus musculus, UniProt P41245) (P41245 whole entry): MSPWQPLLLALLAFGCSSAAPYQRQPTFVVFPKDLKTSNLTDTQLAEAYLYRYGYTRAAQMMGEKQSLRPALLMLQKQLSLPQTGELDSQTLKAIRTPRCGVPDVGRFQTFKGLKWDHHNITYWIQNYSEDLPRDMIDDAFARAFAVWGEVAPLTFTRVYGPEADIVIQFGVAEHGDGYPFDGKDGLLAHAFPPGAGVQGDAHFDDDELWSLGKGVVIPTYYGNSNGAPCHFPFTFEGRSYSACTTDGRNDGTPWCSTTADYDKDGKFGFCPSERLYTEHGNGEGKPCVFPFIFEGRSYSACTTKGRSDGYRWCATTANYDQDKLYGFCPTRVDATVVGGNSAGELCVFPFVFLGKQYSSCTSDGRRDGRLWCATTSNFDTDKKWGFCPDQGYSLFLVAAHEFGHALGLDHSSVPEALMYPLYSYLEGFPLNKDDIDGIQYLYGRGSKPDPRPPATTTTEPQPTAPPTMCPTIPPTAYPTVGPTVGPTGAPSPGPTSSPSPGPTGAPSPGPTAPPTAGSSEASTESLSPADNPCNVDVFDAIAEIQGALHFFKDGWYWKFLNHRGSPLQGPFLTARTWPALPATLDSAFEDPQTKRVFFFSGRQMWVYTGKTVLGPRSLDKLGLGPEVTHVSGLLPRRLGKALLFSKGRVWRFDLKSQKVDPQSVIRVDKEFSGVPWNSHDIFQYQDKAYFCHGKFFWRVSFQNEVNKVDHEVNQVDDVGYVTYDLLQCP
Sequence of Stromelysin-1 (P08254 whole entry): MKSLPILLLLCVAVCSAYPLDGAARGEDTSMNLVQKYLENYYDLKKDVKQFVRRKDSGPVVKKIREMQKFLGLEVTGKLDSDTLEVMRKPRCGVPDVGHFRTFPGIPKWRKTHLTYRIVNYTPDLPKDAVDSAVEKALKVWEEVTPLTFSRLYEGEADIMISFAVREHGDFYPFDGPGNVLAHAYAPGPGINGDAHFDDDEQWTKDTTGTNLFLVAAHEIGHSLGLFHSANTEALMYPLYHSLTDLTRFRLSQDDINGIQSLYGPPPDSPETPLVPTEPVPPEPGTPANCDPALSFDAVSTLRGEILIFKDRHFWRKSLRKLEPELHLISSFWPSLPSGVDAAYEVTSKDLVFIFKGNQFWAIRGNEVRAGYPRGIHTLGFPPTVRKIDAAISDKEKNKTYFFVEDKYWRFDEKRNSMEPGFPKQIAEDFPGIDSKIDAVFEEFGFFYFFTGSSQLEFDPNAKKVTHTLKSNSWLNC
Sequence of Matrix metalloproteinase-9 (Homo sapiens, UniProt P14780) (P14780 whole entry): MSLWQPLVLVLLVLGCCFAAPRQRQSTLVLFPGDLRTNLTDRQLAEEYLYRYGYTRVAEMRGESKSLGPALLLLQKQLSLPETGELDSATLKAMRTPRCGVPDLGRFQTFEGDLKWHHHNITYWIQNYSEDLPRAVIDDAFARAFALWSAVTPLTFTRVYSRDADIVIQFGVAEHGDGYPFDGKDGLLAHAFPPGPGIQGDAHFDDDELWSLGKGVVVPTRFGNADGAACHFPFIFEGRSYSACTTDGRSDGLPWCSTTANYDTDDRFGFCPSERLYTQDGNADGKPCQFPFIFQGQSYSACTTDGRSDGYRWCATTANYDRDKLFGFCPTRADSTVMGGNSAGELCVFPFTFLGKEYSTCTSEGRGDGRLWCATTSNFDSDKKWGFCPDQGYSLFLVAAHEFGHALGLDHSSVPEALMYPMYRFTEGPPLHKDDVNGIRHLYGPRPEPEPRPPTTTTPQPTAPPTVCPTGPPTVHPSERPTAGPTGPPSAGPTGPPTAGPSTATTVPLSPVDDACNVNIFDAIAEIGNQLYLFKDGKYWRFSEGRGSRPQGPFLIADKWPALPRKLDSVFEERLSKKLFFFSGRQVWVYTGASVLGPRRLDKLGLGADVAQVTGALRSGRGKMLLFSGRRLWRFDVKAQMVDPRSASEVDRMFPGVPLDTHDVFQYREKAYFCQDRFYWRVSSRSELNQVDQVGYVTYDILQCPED
Sequence of 72 kDa type IV collagenase (Homo sapiens, UniProt P08253) (P08253 whole entry): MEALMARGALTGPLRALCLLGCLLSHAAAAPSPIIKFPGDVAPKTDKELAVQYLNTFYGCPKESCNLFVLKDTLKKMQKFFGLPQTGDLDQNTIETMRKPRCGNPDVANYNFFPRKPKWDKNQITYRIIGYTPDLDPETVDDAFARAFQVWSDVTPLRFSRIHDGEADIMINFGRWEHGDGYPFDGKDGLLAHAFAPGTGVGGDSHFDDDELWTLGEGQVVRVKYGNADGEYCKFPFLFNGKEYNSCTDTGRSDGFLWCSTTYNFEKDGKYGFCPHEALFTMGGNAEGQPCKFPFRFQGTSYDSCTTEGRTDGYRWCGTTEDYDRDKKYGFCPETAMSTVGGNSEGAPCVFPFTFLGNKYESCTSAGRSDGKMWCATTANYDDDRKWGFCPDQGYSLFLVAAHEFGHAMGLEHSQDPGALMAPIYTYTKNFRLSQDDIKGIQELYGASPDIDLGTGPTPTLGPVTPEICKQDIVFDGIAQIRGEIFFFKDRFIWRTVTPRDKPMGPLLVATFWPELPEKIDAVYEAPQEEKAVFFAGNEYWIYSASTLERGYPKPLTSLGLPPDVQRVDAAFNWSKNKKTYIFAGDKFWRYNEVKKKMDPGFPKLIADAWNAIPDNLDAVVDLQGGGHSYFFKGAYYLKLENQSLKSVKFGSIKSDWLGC

Q: Which IC50 (Stromelysin-1) does the source give for `COc1ccc(S(=O)(=O)N(CC(C)C)[C@@H](CCSCc2ccc(-c3ccccc3)cc2)C(=O)NO)cc1` here?
A: 20 nM

Q: What about the IC50 [1] of the same compound?
A: 30 nM

Q: What about the IC50 [2] of the same compound?
A: 0.2 nM

Q: For `COc1ccc(S(=O)(=O)N(CC(C)C)[C@@H](CCSCc2ccccc2)C(=O)NO)cc1`, which IC50 (Interstitial collagenase) is on record?
A: 104 nM

Q: What about the IC50 (Stromelysin-1) of the same compound?
A: 0.7 nM

Q: And the IC50 (Collagenase 3)?
A: 12 nM

Q: And the IC50 [1]?
A: 0.7 nM

Q: And the IC50 [2]?
A: 2.5 nM

Q: For `COc1ccc(S(=O)(=O)N(CC(C)C)[C@@H](CCSCc2ccc(OCc3ccccc3)cc2)C(=O)NO)cc1`, which IC50 (Stromelysin-1) is on record?
A: 29 nM

Q: And the IC50 [2]?
A: 8 nM

Q: `CC[C@@H](C(=O)NO)N(CC(C)C)S(=O)(=O)c1ccc(OC)cc1` was tested. Which IC50 (Interstitial collagenase) did it give?
A: 384 nM

Q: What about the IC50 (Stromelysin-1) of the same compound?
A: 45 nM

Q: And the IC50 (Collagenase 3)?
A: 96 nM

Q: What about the IC50 [1] of the same compound?
A: 53 nM

Q: And the IC50 [2]?
A: 7 nM

Q: For `CC(C)CN([C@@H](CCSCc1ccccc1)C(=O)NO)S(=O)(=O)c1ccc(-c2ccccc2)cc1`, which IC50 (Stromelysin-1) is on record?
A: 90 nM

Q: What about the IC50 [3] of the same compound?
A: 2.5 nM

Q: And the IC50 (Collagenase 3)?
A: 3.8 nM

Q: What about the IC50 [4] of the same compound?
A: 4.1 nM

Q: Which IC50 (Stromelysin-1) does the source give for `COc1ccc(S(=O)(=O)N(CC(=O)NC(c2ccccc2)c2ccccc2)[C@H](CCSCc2ccccc2)C(=O)NO)cc1` here?
A: 3.7 nM

Q: And the IC50 [3]?
A: 0.5 nM

Q: What about the IC50 (Collagenase 3) of the same compound?
A: 4.5 nM

Q: What about the IC50 [4] of the same compound?
A: 2.3 nM

Q: `CSCC[C@@H](C(=O)NO)N(CC(C)C)S(=O)(=O)c1ccc(-c2ccccc2)cc1` was tested. Which IC50 (Interstitial collagenase) did it give?
A: 156 nM

Q: What about the IC50 (Stromelysin-1) of the same compound?
A: 37 nM

Q: What about the IC50 (Collagenase 3) of the same compound?
A: 3 nM

Q: And the IC50 [1]?
A: 0.7 nM

Q: What about the IC50 [2] of the same compound?
A: 0.2 nM

Q: What does the source list for `COc1ccc(S(=O)(=O)N(Cc2cccnc2)[C@@H](C(=O)NO)C(C)C)cc1` [CGS-27023A]?
A: IC50 [3]: 10 nM; IC50 [4]: 15 nM
